Entries after “also recorded” stand apart in the source; their conditions may differ. Like-named read-outs stand apart in the source and are kept apart here.
Experiments:
[1] = tested on: TNBS-induced colitis; assay type: in vivo, mice; settings: for effect on CD-like colitis (overall statement): mouse IBD model, acute/chronic not specified; for disease activity (DAI), acute TNBS-colitis: mouse, in vivo
From the text: C57BL/6. Mice were pretreated either with PBS (control), or nicotine, PNU (α7 agonist), or MLA drug by peritoneal injection once daily for five days. Mice were then induced to develop colitis for seven days with either TNBS (in 50% ethanol) or 50% ethanol alone as a control. Disease activity of all mice was monitored daily.
(§1) For CD-like mouse model, BALB/c mice were used for the induction of DSS colitis. For CD-like mouse model, BALB/c mice were used for the induction of TNBS-colitis. C57/B6 or BALB/c mice, 6-8 weeks old, were pretreated (daily peritoneal injection) for one week with either nicotine (a non-specific ligand of nAChRα7; 6 mg/kg) or a nAChRα7-specific agonist (PNU; 8.3 mg/kg). Controls were mice without the pre-treatments (a total of >10 mice in each treatment group). The mice were then induced to develop either CD-like colitis with TNBS (600 μg) or UC-like colitis with DSS (2.5%).

[2] = tested on: DSS-induced colitis; assay type: in vivo, mice; settings: for effect on UC-like colitis (overall statement): mouse IBD model, acute/chronic not specified
Experimental: (§2) In an acute model, mice were treated with or without nAChRα7 agonist drug for five days. DSS were then given for seven days. Clinical activity scores were assessed. In a chronic model, mice were given DSS for seven days followed by seven days water. These DSS-water cycles were repeated three more times continuously. […] At this point, nAChRα7 agonist was given in one set of mice and all mice were followed for eleven days. […] The arrow indicates the start (day 53) of nAChRα7 agonist treatment in the chronic model;
as §1

[3] = tested on: chronic DSS colitis; assay: Chronic UC-like DSS colitis, therapeutic treatment; assay type: in vivo, mice; settings: four DSS-water cycles, treatment from day 53, followed eleven days
Experimental: as §2
Induction of chronic UC-like colitis was described in the legends of FIG. 6.

[4] = tested on: chronic TNBS-induced colitis; assay type: in vivo, mice
[5] = tested on: mouse behavior (immobility); settings: DSS-induced colitis mice, IP agonist
Experimental: Tests were carried out on mice forced to swim in a cylindrical container for six minutes. Mice were divided into four groups: (a) control; (b) mice receiving IP agonist; (c) mice induced with DSS; and (d) mice receiving IP agonist and induced with DSS (n=6 in each group). The total duration of immobility in a container with 13 cm of water at 25° C. was scored. Immobility was defined when the mouse stopped struggling and remained floating motionless in the water, making only those movements necessary to keep its head above water. Day 0 and Day 7 indicate the days of DSS treatment.
(§3) Other studies of these nAChRα7-specific drugs, including toxicity and pharmacokinetics, are being investigated.

[6] = tested on: Gpx1/2-double knockout (DKO) mice ileocolitis; assay: GPX 1/2 DKO colitis; assay type: in vivo; settings: administered once signs of colitis were evident
Experimental: Clinical activity scores were assessed.
Once signs of colitis were immediately evident, both nAChRα7 agonists and nAChRα7 antagonists were administered to Gpx1/2-DKO mice.

[7] = at the dose used in the preclinical studies
From the text: as §3

[8] = tested on: DSS-induced colitis of nAChRα7 deficient mice; settings: mouse, in vivo
Experimental: (§4) Wild type (WT) nAChRα7 deficient (nAChRα7 knockout; α7KO) mice, both in C57B/6 background, were induced to develop colitis, either with DSS (A) or TNBS (B). […] N≧6 per group;
(§5) To exclude this possibility, nAChRα7 agonist and antagonist were tested on nAChRα7-knockout mice (nAChRα7-KO), in which development of chemically-induced colitis will not be affected by the agents if they are only specific to nAChRα7.

[9] = tested on: TNBS-induced colitis of nAChRα7 deficient mice; settings: mouse, in vivo
Experimental: as §4, §5

[10] = tested on: Ulcerative colitis (UC); settings: human, in vivo; cited from earlier work
[11] = tested on: Immortalized (EBV-transformed) B lymphocytes of patients with UC, CD, and unaffected controls
[12] = treatment of established chronic colitis

| SMILES | effect on CD-like colitis (overall statement) [1] | effect on UC-like colitis (overall statement) [2] | disease activity (DAI), acute DSS-colitis ([2]; mouse, in vivo) | disease activity (clinical activity score), chronic DSS colitis [3] | disease activity (DAI), chronic TNBS-colitis [4, 12] | disease activity (DAI), acute TNBS-colitis [1] | immobility of DSS-mice in forced swim test [5] | colitis clinical activity score, GPX 1/2 DKO mice [6] | adverse effect on mice [7] | appearance of major organs (heart, kidney, liver, small and large intestines, spleen) [7] | therapeutic effect on DSS-induced colitis in nAChRα7KO mice [8] | therapeutic effect on TNBS-induced colitis in nAChRα7KO mice [9] | potency compared with nicotine in preventing DSS-induced UC-like colitis ([2]; mouse, in vivo) | disease activity (DAI), chronic TNBS-colitis ([4]; mouse, in vivo) | clinical efficacy in UC [10] | anti-inflammatory cytokine IL-10 production [11] | cytokine/chemokine changes, agent by itself [11] | production of proinflammatory cytokine/chemokine IL-8 and MIP-1 [11] |
| --- | --- | --- | --- | --- | --- | --- | --- | --- | --- | --- | --- | --- | --- | --- | --- | --- | --- | --- |
| COc1ccc(/C=C2\CCCN=C2c2cccnc2)c(OC)c1 [GTS-21, 3-(2,4-dimethoxybenzylidene) anabaseine] | worsened CD-like colitis | highly effective therapeutics for UC-like colitis | similarly effect of preventing development; also recorded: preventing DSS-induced colitis | effectively reverse the disease course |  |  |  |  |  |  |  |  |  |  |  |  |  |  |
| CCN1C[C@]2(COC(=O)c3ccccc3N3C(=O)C[C@H](C)C3=O)CC[C@H](OC)[C@@]34[C@@H]5C[C@H]6[C@H](OC)[C@@H]5[C@](O)(C[C@@H]6OC)[C@@](O)([C@@H](OC)[C@H]23)[C@@H]14 [MLA, methyllycaconitine] | highly effective therapeutic agent for CD-like colitis | has no effect on UC-like colitis |  |  | highly therapeutic effect; also recorded: effectively reverses the disease course | efficiently prevent; also recorded: preventing acute TNBS-colitis; also recorded: essentially disappeared; also recorded: effectively prevent |  |  |  |  |  |  |  |  |  |  |  |  |
| O=C(N[C@H]1CN2CCC1CC2)c1ccc(Cl)cc1 [PNU, N-[(3R)-1-azabicyclo[2.2.2]oct-3-yl]-4-chlorobenzamide] | worsened CD-like colitis | highly effective therapeutics for UC-like colitis | prevents DSS-induced UC-like colitis; also recorded: preventing DSS-induced colitis; also recorded: essentially eliminated the inflammation; also recorded: effectively prevent | effectively reverse the disease course; also recorded: essentially eliminated the inflammation | no significant effect | greatly worsens; also recorded: worsens the disease; also recorded: either no therapeutic benefit, even worsening disease activity | completely reversed the immobility | highly effective in treating colitis | no adverse effect | look normal by appearance | neither agonist (PNU) nor antagonist (MLA) was efficacious; also recorded: no effect at all | neither agonist (PNU) nor antagonist (MLA) was efficacious; also recorded: no effect at all | slightly more potent |  |  |  |  |  |
| CN1CCCC1c1cccnc1 (stereo not drawn) [nicotine] |  |  | prevents the development; also recorded: prevents DSS-induced UC-like colitis; also recorded: effective in preventing UC-like DSS-colitis |  |  |  |  |  |  |  |  |  |  | no significant effect | significant clinical efficacy | significant inhibition | insignificant cytokine/chemokine changes | significant production |

Reference: patent publication US20130197028A1, “nAChRalpha7 Agonists and nAChRalpha7 Antagonists for Treating Ulcerative Colitis (UC) and Crohn's Disease (CD)” (priority 2010, published 2013)
